Test results from patent EP4755881A1 (Wuhan Createrna Science and Technology Co., Ltd., priority 2023, dated 2025).
Read-outs that look alike come from different tables or passages of the source.

Assays:
LPAR1 receptor = biological target: T1, LPAR1 receptor (Homo sapiens, UniProt Q92633); assay: LPAR1 in vitro biological activity evaluation 2: HTRF cAMP kit (LANCE Ultra cAMP Kit) assay in CHO stable transfected cell line expressing the LPAR1 receptor; type: cell-based
T1 construct: expressed in transfected cells
Procedure: The inhibitory effects of the compounds of the present disclosure on the LPAR1 receptor were determined using a Chinese hamster ovary (CHO) stable transfected cell line expressing the LPAR1 receptor, through the HTRF cAMP kit (LANCE® Ultra cAMP Kit).
The CHO cell line expressing the LPAR1 receptor was cultured in F-12 medium (Gibco, 117650054) containing 10% fetal bovine serum (FBS, Avantor, 76294-180) and 0.2 mg/mL hygromycin B (Solarbio, H8080-1g) at 37°C with 5% CO2. Cell passage, recovery, and cryopreservation were performed according to conventional methods. The stable transfected cell line was cultured to 80% confluence, digested with trypsin to collect cells, counted, and then seeded at 5 µL/well in a 384-well plate (500 cells/5 µL). The 1× Stimulation Buffer was prepared according to the instructions of the kit (LANCE® Ultra cAMP Kit). 1 µL of the test compound solution (diluted to 10× with 1× Stimulation Buffer) was added to the corresponding experimental wells, followed by centrifugation and incubation at 37°C for 10 minutes. […] 5 µL/well of Eu-cAMP (diluted with Detection buffer) was added to the corresponding experimental wells. 5 µL/well of ULight™-anti-cAMP antibody (diluted with Detection buffer) was added to the corresponding experimental wells, followed by centrifugation and incubation at room temperature for 1 hour. After the incubation was completed, the readings at 665 nm and 620 nm under 330 nm excitation were detected using the HTS high-throughput drug screening multifunctional microplate reader (BMG, PHERAstar FSX). The IC50 values were calculated by fitting nonlinear regression (dose response - variable slope) using GraphPad Prism software.

[1] = Pharmacokinetic study in rats (oral gavage and tail vein injection, plasma LC-MS/MS); type: in vivo; conditions: rat, SD rats, 1 mg/kg; for Cmax: read-out: Cmax
Summary of the method: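 Plasma from SD rats is taken at 0.167–24 h after oral gavage or at 0.033–24 h after intravenous tail-vein dosing and assayed by LC-MS/MS. Oral animals are fasted overnight and dosed in DMSO/ethanol/PEG400/saline; IV animals receive ethanol/water/PEG400. PK parameters come from a non-compartmental model.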

[2] = Table 2, read-out: LPAR1 inhibitory activity IC50

T1 sequence (Q92633 whole entry): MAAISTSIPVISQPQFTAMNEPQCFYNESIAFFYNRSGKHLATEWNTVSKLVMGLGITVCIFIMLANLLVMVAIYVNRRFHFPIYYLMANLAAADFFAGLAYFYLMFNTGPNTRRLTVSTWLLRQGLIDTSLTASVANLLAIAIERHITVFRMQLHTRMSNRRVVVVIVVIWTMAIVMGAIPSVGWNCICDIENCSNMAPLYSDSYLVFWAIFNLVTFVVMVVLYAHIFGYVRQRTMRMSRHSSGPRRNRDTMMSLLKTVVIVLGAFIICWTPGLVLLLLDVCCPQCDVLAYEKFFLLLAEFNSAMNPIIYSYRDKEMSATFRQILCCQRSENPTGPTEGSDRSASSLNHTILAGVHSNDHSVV

Q: Which IC50 (LPAR1 receptor; [2]) does the source give for `CCc1nc(-c2nnn(C)c2NC(=O)O[C@H](C)CC(C)(F)F)ccc1C#CC1(CC(=O)O)CC2(CC2)C1` [compound 500] here?
A: Its IC50 is 4.5 nM.

Q: Which IC50 (LPAR1 receptor; [2]) does the source give for `Cc1nc(-c2noc(C)c2NC(=O)O[C@H](C)CC(C)(F)F)ccc1C#CC1(CC(=O)O)CC1` [compound 334] here?
A: The IC50 was 107 nM.

Q: With `CCC(F)(F)[C@@H](C)OC(=O)Nc1c(-c2ccc(C#CC3(CC(=O)O)CC(OC)C3)c(C)n2)noc1C` (stereo partly shown) [compound 468] as the molecule, how does the AUC(0-t) ([1]; Iv) read?
A: The AUC(0-t) was 3000 to 5000 ng·h/mL.

Q: And the half-life ([1]; Iv)?
A: The half-life was 2.35 h.

Q: What about the Cmax ([1]; Iv) of the same molecule?
A: The Cmax was 800 to 5000 ng/mL.

Q: And the AUC(0-t) ([1]; Po)?
A: The AUC(0-t) was 5000 to 10000 ng·h/mL.

Q: And the half-life ([1]; Po)?
A: The half-life was 2.77 h.

Q: What about the Cmax ([1]; Po) of the same molecule?
A: Its Cmax is 200 to 800 ng/mL.

Q: And the IC50 (LPAR1 receptor; LPAR1 inhibitory activity IC50, Table 2)?
A: Its IC50 is 31.6 nM.

Q: With `Cc1nc(-c2nnn(C)c2NC(=O)O[C@H](C)CC(C)C)ccc1C#C[C@@H]1CC(F)(F)C[C@H]1C(=O)O` [compound 299] as the molecule, how does the IC50 (LPAR1 receptor; [2]) read?
A: Its IC50 is 13.6 nM.

Q: With `CCC(F)(F)[C@@H](C)OC(=O)Nc1c(C)noc1-c1ccc(C#CC2(CC(=O)O)CC2)c(CF)n1` [compound 335] as the molecule, how does the IC50 (LPAR1 receptor; [2]) read?
A: The IC50 was 113 nM.

Q: For `Cc1nc(-c2nnn(C)c2COC(=O)N(C)CCC(C)(F)F)ccc1C#C[C@@H]1CCC[C@H]1C(=O)O` (single isomer, unassigned) [282-A], which IC50 (LPAR1 receptor; [2]) is on record?
A: Its IC50 is 87.6 nM.

Q: With `CCC[C@@H](C)OC(=O)Nc1c(-c2ccc(C#C[C@@H]3CCC[C@H]3C(=O)O)c(C)n2)nnn1C` [compound 305] as the molecule, how does the IC50 (LPAR1 receptor; [2]) read?
A: Its IC50 is 91.2 nM.

Q: For `CCC(F)(F)[C@@H](C)OC(=O)Nc1c(-c2ccc(C#CC3(CC(=O)O)CC4(CC4)C3)c(Cl)n2)nnn1C` [compound 503], which IC50 (LPAR1 receptor; [2]) is on record?
A: Its IC50 is 8.5 nM.

Q: With `CCC(F)(F)[C@@H](C)OC(=O)Nc1c(-c2ccc(C#CC3(CC(=O)O)CC(OC)C3)c(Cl)n2)nnn1C` (stereo partly shown) [compound 461] as the molecule, how does the IC50 (LPAR1 receptor; [2]) read?
A: The IC50 was 23.4 nM.

Q: For `CCC(F)(F)[C@@H](C)OC(=O)Nc1c(-c2ccc(C#CC3(CC(=O)O)CC3)c(C(F)(F)F)n2)nnn1C` [compound 208, (R)-2-(1-((6-(5-((((3,3-difluoropentan-2-yl)oxy)carbonyl)amino)-1-methyl-1H-1,2,3-triazol-4-yl)-2-(trifluoromethyl)pyridin-3-yl)ethynyl)cyclopropyl)acetic acid], which IC50 (LPAR1 receptor; [2]) is on record?
A: Its IC50 is 44.1 nM.

Q: Which IC50 (LPAR1 receptor; [2]) does the source give for `CCCC(C)OC(=O)Nc1c(-c2ccc(C#CC3CCCC3C(=O)O)c(C)n2)nnn1C` (single isomer, unassigned) [305-A] here?
A: The IC50 was 25.6 nM.

Q: Which IC50 (LPAR1 receptor; [2]) does the source give for `CCC(F)(F)[C@@H](C)OC(=O)Nc1c(-c2ccc(C#CC3(CC(=O)O)CCC3)c(C)n2)nnn1C` [compound 323] here?
A: Its IC50 is 14.8 nM.

Q: Which AUC(0-t) ([1]; Iv) does the source give for `CCC(F)(F)[C@@H](C)OC(=O)Nc1c(-c2ccc(C#CC3(CC(=O)O)CC3)c(C)n2)noc1C` [compound 444] here?
A: Its AUC(0-t) is 1200 to 3000 ng·h/mL.

Q: And the half-life ([1]; Iv)?
A: The half-life was 2.91 h.

Q: And the Cmax ([1]; Iv)?
A: Its Cmax is 800 to 5000 ng/mL.

Q: What about the AUC(0-t) ([1]; Po) of the same molecule?
A: Its AUC(0-t) is 3000 to 5000 ng·h/mL.

Q: What about the half-life ([1]; Po) of the same molecule?
A: The half-life was 3.61 h.

Q: What about the Cmax ([1]; Po) of the same molecule?
A: Its Cmax is 200 to 800 ng/mL.

Q: And the IC50 (LPAR1 receptor; [2])?
A: The IC50 was 48.4 nM.

Q: Which IC50 (LPAR1 receptor; [2]) does the source give for `CCCCN(C)C(=O)OCc1c(-c2ccc(C#CC3(CC(=O)O)CC(F)(F)C3)c(C)n2)nnn1C` [compound 109] here?
A: Its IC50 is 23.9 nM.

Q: Which IC50 (LPAR1 receptor; [2]) does the source give for `Cc1nc(-c2nnn(C)c2NC(=O)O[C@H](C)c2ccccc2)ccc1C#C[C@@H]1CCC[C@H]1C(=O)O` [compound 402] here?
A: The IC50 was 47.2 nM.

Q: For `CCc1nc(-c2noc(C)c2NC(=O)O[C@H](C)C(F)(F)CC)ccc1C#CC1(CC(=O)O)CC(OC)C1` (stereo partly shown) [compound 492], which AUC(0-t) ([1]; Iv) is on record?
A: Its AUC(0-t) is 5000 to 10000 ng·h/mL.

Q: And the half-life ([1]; Iv)?
A: Its half-life is 3.92 h.

Q: And the Cmax ([1]; Iv)?
A: Its Cmax is 800 to 5000 ng/mL.

Q: And the AUC(0-t) ([1]; Po)?
A: Its AUC(0-t) is 5000 to 10000 ng·h/mL.

Q: And the half-life ([1]; Po)?
A: The half-life was 3.75 h.

Q: What about the Cmax ([1]; Po) of the same molecule?
A: Its Cmax is 800 to 5000 ng/mL.

Q: What about the IC50 (LPAR1 receptor; [2]) of the same molecule?
A: Its IC50 is 8.6 nM.

Q: Which IC50 (LPAR1 receptor; [2]) does the source give for `CCc1nc(-c2nnn(C)c2NC(=O)O[C@H](C)CC(C)(F)F)ccc1C#CC1(CC(=O)O)CC(OC)C1` (stereo partly shown) [compound 476] here?
A: The IC50 was 76.5 nM.

Q: With `Cc1nc(-c2nnn(C)c2NC(=O)O[C@H](C)CC2CC2)ccc1C#C[C@@H]1CC[C@H]1C(=O)O` [compound 248] as the molecule, how does the IC50 (LPAR1 receptor; [2]) read?
A: Its IC50 is 72.2 nM.

Q: What does the source list for `CCC(F)(F)[C@@H](C)OC(=O)Nc1c(-c2ccc(C#CC3(CC(=O)O)CC(OC)C3)c(C(F)(F)F)n2)nnn1C` (stereo partly shown) [compound 463]?
A: AUC(0-t) ([1]; Iv): 3000 to 5000 ng·h/mL; half-life ([1]; Iv): 5.44 h; Cmax ([1]; Iv): 5000 to 8000 ng/mL; AUC(0-t) ([1]; Po): 5000 to 10000 ng·h/mL; half-life ([1]; Po): 5.47 h; Cmax ([1]; Po): 800 to 5000 ng/mL; IC50 (LPAR1 receptor; [2]): 38.2 nM
